Experimental data: article PMC9920413, “New Bicyclic Pyridine-Based Hybrids Linked to the 1,2,3-Triazole Unit: Synthesis via Click Reaction and Evaluation of Neurotropic Activity and Molecular Docking” (Molecules, 2023)

Columns and labels:
[1] = system: mouse; test: Elevated plus maze (EPM) test; type: in vivo; details: 5 min
How it was run: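 Mice dosed intraperitoneally with compound or reference before testing, controls receiving emulsifier. Anxiolytic effect scored as increased entries into and time in open arms without raised total motor activity; closed-arm time and center-entry attempts also recorded; significance at p < 0.05.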

[2] = system: rats; test: Electroshock retrograde amnesia, conditioned response of passive avoidance (CRPA); type: in vivo; details: for The Time Spent in the Light Chamber during the Training of the CRPA, First Day / The Time Spent in the Light Chamber When Playing CRPA + MESH after 24 h, Second Day: study for 5 min
How it was run: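 Rats trained in light/dark passive avoidance with a single 0.4 mA foot shock in the dark compartment, then given maximal electroconvulsive shock (50 Hz, 0.2 s, corneal) immediately after to induce amnesia. Retention tested 24 h later; antiamnesic effect read as increased time in the light compartment versus controls.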

[3] = system: mice; test: Forced swimming test; details: 6 min;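 also: mice made to swim in a water-filled glass vessel under natural light, with durations of active swimming and immobility recorded across the 6 min session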
Method: Forced swimming test. To assess “despair and depression”, the “compelling swimming” model was used. Experimental animals were forced to swim in a glass container (height 22 cm, diameter 14 cm), filled 1/3 with water. […] The latent period of immobilization, the total duration of active swimming and immobilization are fixed at 6 min (the experiments were conducted under natural light).

[4] = system: pentylenetetrazole (PTZ)-induced convulsions; test: Antagonism to pentylenetetrazole (PTZ) convulsions; type: in vivo
How it was run: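 Outbred mice (18–22 g), six per dose, given compound or emulsifier vehicle; clonic seizures and convulsions after PTZ recorded over 1 h observation. ED50 derived by the Litchfield–Wilcoxon method.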

[5] = system: mice; test: in vivo; details: dead animals after 24 h
How it was run: (§1)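 Compounds are given intraperitoneally to mice at 50 to 500 mg/kg, with reference drugs at anticonvulsant doses. Muscle relaxation is scored on a rod rotating at 5 rpm as the number of animals unable to stay on for 2 min. ED50, TD50 and LD50 come from the Litchfield and Wilcoxon method.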

[6] = system: rats; test: Open field test; type: in vivo
How it was run: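 Rats observed for 5 min in a modified open field whose floor is divided into squares with holes, in daytime under natural light. Horizontal movements, rearing and hole sniffing were counted; eight animals per compound, control and reference drug.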

[7] = system: mice; test: Rotating rod test (neurotoxicity, myorelaxation); type: in vivo; details: i.p., myorelaxation in 50% of animals
How it was run: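 Compounds given i.p. at 50 to 500 mg/kg; mice placed on a rubber-coated rod rotating at 5 rpm, counting animals unable to stay on for 2 min. TD50 derived by the Litchfield–Wilcoxon method.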

[8] = system: thiosemicarbazide (TSC)-induced convulsions; test: Thiosemicarbazide (TSC) seizures; type: in vivo, mice; details: for Latency of Convulsions, Induced by TSC, I (index of latent period of TSC seizures): compound 100 mg/kg i.p., relative to control = 1.0
How it was run: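 Mice received compounds 100 mg/kg i.p. in carboxymethylcellulose/Tween-80 suspension 45 min before thiosemicarbazide 18 mg/kg s.c. (0.5% solution). Anti-TSC activity judged by latency to onset of clonic seizures.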

[9] = in vivo; details: outbred, mouse, in vivo; mice, dead animals after 24 h
How it was run: as §1

[10] = system: maximal electroshock-induced seizures; test: Maximal electroshock-induced seizures (MES); type: in vivo; details: mice, MES 50 mA, 0.2 s
Method: The study of the anticonvulsant activity of hybrids 7a–u was assessed by evaluating the antagonism to pentylenetetrazole (PTZ), thiosemicarbazide convulsive seizures, and maximal electroshock-induced seizures (MES). The PTZ-induced test is considered an experimental model for the clonic component of epilepsy seizures and the prognostic anxiolytic activity of the compounds. PTZ is a common convulsive agent used in animal models to investigate the mechanisms of seizures. The model of thiosemicarbazide (TSC) seizures (affecting the exchange of GABA) causes clonic seizures similar to pentylenetetrazole ones. The MES test is used as an animal model for the generalization of tonic seizures in epilepsy. The neurotoxicity and side effects of the compounds (movement coordination disorder, myorelaxation, and ataxia) were also studied on mice with the “rotating rod”[29] test.
The anticonvulsant effect of the newly synthesized compounds was investigated by tests comprising pentylenetetrazole, thiosemicarbazide convulsions, and maximal electroshock (MES). Outbred mice (weight 18–22 g) were used for the study. […] Seizures and clonic convulsions were recorded. […]
The MES test is used as an animal model for the generalized tonic seizures of epilepsy. […] The anticonvulsant properties of compounds were assessed by their prevention of the tonic-extensor phase of convulsions.

[11] = 50 mg/kg i.p., control 2.6 ± 1.6
[12] = 50 mg/kg i.p., control 9.4 ± 1.6
[13] = 50 mg/kg i.p., control 28.2 ± 3.12
[14] = 50 mg/kg i.p., control 269.2 ± 10.4
[15] = 50 mg/kg i.p., control 2.4 ± 0.67
[16] = 50 mg/kg i.p., control 7.0 ± 2.14
[17] = 50 mg/kg i.p., control 21.6 ± 2.25
[18] = mice, compound 100 mg/kg i.p. 45 min before TSC 18 mg/kg s.c.
[19] = therapeutic index TI = LD50/ED50
[20] = Mus musculus, read-out: Latency of Convulsions, Induced by TSC, I (index of latent period of TSC seizures)

Row | Compound | melting point [°C] | Time Spent in the Open Arms [1, 11] [s] | Number of Entries into the Closed Arms [1, 12] | Time Spent in the Center [1, 13] [s] | Time Spent in Closed Arms [1, 14] [s] | The Time Spent in the Light Chamber during the Training of the CRPA, First Day ([2]; 50 mg/kg, control 280.0 ± 7.5) [s] | The Time Spent in the Light Chamber When Playing CRPA + MESH after 24 h, Second Day ([2]; 50 mg/kg, control 281.0 ± 6.1) [s] | Total Time of Immobilization ([3]; 50 mg/kg, control 42.0 ± 7.24) [s] | Total Time of Active Swimming ([3]; 50 mg/kg, control 318.0 ± 8.36) [s] | LD50 [5] | Cells Examination, amount (absolute data during 5 min) [6, 15] | Vertical Displacement, amount (absolute data during 5 min) [6, 16] | Horizontal Displacement, amount (absolute data during 5 min) [6, 17] | TD50 [7] | Latency of Convulsions, Induced by TSC, M ± M [8, 18] [min] | Latency of Convulsions, Induced by TSC, I (index of latent period of TSC seizures) ([8]; mice) | TI [4, 19] | anticonvulsant effect in the MES test (protection from tonic and clonic seizures) [10] | further results
1 | CCCc1nc(OCc2cn(CC(=O)N3CCN(c4nc(C)c5c(c4C#N)CC(C)(C)OC5)CC3)nn2)c(C#N)c2c1COC(C)(C)C2 [7s, 6-{4-[(4-{[(5-Cyano-3,3-dimethyl-8-propyl-3,4-dihydro-1H-pyrano [3,4-c]pyridin-6-yl)oxy]methyl}-1H-1,2,3-triazol-1-yl)acetyl]piperazin-1-yl}-3,3,8-trimethyl-3,4-dihydro-1H-pyrano [3,4-c]pyridine-5-carbonitrile] | 192 to 194 |  |  |  |  |  |  |  |  |  |  |  |  |  |  |  |  |  | 
2 | 6-{4-[(4-{[(4-Cyano-1-methyl-5,6,7,8-tetrahydroisoquinolin-3-yl)oxy]methyl}-1H-1,2,3-triazol-1-yl)acetyl]piperazin-1-yl}-1,3,3-trimethyl-3,4-dihydro-1H-pyrano [3,4-c]pyridine-5-carbonitrile [7d] |  | 21.0 ± 3.2 | 1.36 ± 0.8 | 15.0 ± 3.62 | 264 ± 8.12 | 284.0 ± 6.8 | 299.0 ± 7.2 | 77.4 ± 7.1 | 300.0 ± 29.2 | 800 (672 ÷ 952) mg/kg | 6.2 ±0.38 | 14.4 ± 3.98 | 38.6 ± 5.18 | >500 mg/kg | 41.2 ± 1.61 | 4.12 |  |  | ED50 (by PTZ antagonism) ([4]; mice, i.p. 45 min before PTZ 90 mg/kg s.c., confidence limits in brackets, p = 0.05): 16 (13.1 ÷ 19.5) mg/kg
3 | 6-{4-[(4-{[(4-Cyano-1-isopropyl-5,6,7,8-tetrahydroisoquinolin-3-yl)oxy]methyl}-1H-1,2,3-triazol-1-yl)acetyl]piperazin-1-yl}-3,3-dimethyl-1-propyl-3,4-dihydro-1H-pyrano [3,4-c]pyridine-5-carbonitrile [7i] |  | 42.0 ± 8.43 | 2.2 ± 0.61 | 16.0 ± 5.2 | 242.0 ± 16.46 | 286.0 ± 6.3 | 299.0 ± 6.3 | 62.0 ± 5.04 | 300.0 ± 19.35 | 695 (579 ÷ 834) mg/kg | 3.4 ± 1.89 | 15.0 ± 4.28 | 50.2 ± 5.5 | >500 mg/kg | 41.0 ± 1.75 | 4.1 | 20.4 |  | 
4 | CCC1(C)CC(=O)NC1=O (stereo not drawn) [Ethosuximide, ethosuximide, reference compound] |  |  |  |  |  |  |  |  |  |  |  |  |  | 520 (413 ÷ 655) mg/kg |  |  |  | did not exhibit an anticonvulsant effect | Number of Entries into the Closed Arms ([1]; 200 mg/kg): 8.1 ± 2.5; Time Spent in Closed Arms ([1]; 200 mg/kg): 247.2 ± 27.6 s; Time Spent in the Center ([1]; 200 mg/kg): 52.8 ± 4.7 s; Total Time of Active Swimming ([3]; 200 mg/kg): 262 ± 25.0 s; Total Time of Immobilization ([3]; 200 mg/kg): 98.0 ± 9.2 s; TI ([4]; outbred, mouse, in vivo): 8.5; LD50 at 24 h [9]: 1320 mg/kg; Cells Examination, amount (absolute data during 5 min) ([6]; 200 mg/kg): 0.6 ± 0.5; Horizontal Displacement, amount (absolute data during 5 min) ([6]; 200 mg/kg): 26.8 ± 5.51; Vertical Displacement, amount (absolute data during 5 min) ([6]; 200 mg/kg): 5.6 ± 1.8; response vs control in vivo at 200 mg/kg [8, 20]: 170%; Latency of Convulsions, Induced by TSC, M ± M ([8]; mice, ethosuximide 200 mg/kg): 17.0 ± 1.4 min
5 | CN1C(=O)CN=C(c2ccccc2)c2cc(Cl)ccc21 [Diazepam, diazepam, reference compound] |  |  |  |  |  |  |  |  |  |  |  |  |  |  |  |  | 360 | did not exhibit an anticonvulsant effect | Number of Entries into the Closed Arms ([1]; 2 mg/kg): 5.5 ± 1.1; Time Spent in Closed Arms ([1]; 2 mg/kg): 257.5 ± 25.2 s; Time Spent in the Center ([1]; 2 mg/kg): 42.5 ± 3.9 s; Time Spent in the Open Arms ([1]; 2 mg/kg): 57.0 ± 4.2 s; The Time Spent in the Light Chamber When Playing CRPA + MESH after 24 h, Second Day ([2]; 2 mg/kg): 126.0 ± 6.5 s; The Time Spent in the Light Chamber during the Training of the CRPA, First Day ([2]; 2 mg/kg): 187.0 ± 6.7 s; antiamnestic effect, in words ([2]; electroshock retrograde amnesia, CRPA): did not have an antiamnestic effect; Total Time of Active Swimming ([3]; 2 mg/kg): 336.0 ± 8.1 s; Total Time of Immobilization ([3]; 2 mg/kg): 24.0 ± 8.2 s; ED50 ([4]; Mus musculus, read-out: ED50 (by PTZ antagonism)): 0.5 mg/kg; Cells Examination, amount (absolute data during 5 min) ([6]; 2 mg/kg): 5.0 ±1.2; Horizontal Displacement, amount (absolute data during 5 min) ([6]; 2 mg/kg): 33.6 ± 6.1; Vertical Displacement, amount (absolute data during 5 min) ([6]; 2 mg/kg): 6.4 ± 1.4; response vs control in vivo at 2 mg/kg [8, 20]: 90%; Latency of Convulsions, Induced by TSC, M ± M ([8]; mice, diazepam 2 mg/kg): 9.0 ± 2.5 min; effect on the model of thiosemicarbazide (TSC) seizures, in words ([8]; mice, diazepam 2 mg/kg): not effective
6 | CCCc1nc(N2CCN(C(=O)Cn3cc(COc4nc(-c5ccco5)c5c(c4C#N)CCCC5)nn3)CC2)c(C#N)c2c1COC(C)(C)C2 [7l, 6-(4-{[4-({[4-Cyano-1-(2-furyl)-5,6,7,8-tetrahydroisoquinolin-3-yl]oxy}methyl)-1H-1,2,3-triazol-1-yl]acetyl}piperazin-1-yl)-3,3-dimethyl-8-propyl-3,4-dihydro-1H-pyrano [3,4-c]pyridine-5-carbonitrile] | 144 to 146 |  |  |  |  |  |  |  |  |  |  |  |  |  |  |  |  |  | 
